The subject of data set [1] is NaPi2b. The data set can be described thus: Competition with phosphate: Pi uptake assay repeated at 2.1 vs 0.1 mM phosphate. The format is cell-based. Conditions: potency at 2.1 vs 0.1 mM phosphate. The source says: In certain preferred embodiments, the phosphate transport inhibitors of the present invention are not competitive inhibitors with respect to phosphate of Na/phosphate co-transport. In certain other preferred embodiments, the phosphate transport inhibitors of the invention are non-competitive inhibitors. Non-competitive inhibitors maintain their degree of inhibition irrespective of the local phosphate concentration. This feature is an important aspect in providing an efficient blockade of intestinal transport in postprandial state, where the local concentration of dietary phosphate can attain concentration as high as 10 mM. It is believed that competitive inhibitors are too sensitive to local phosphate concentration and unable to block phosphate uptake following a high phosphorus meal. Various methods are available for determining whether a phosphate transport inhibitor is non-competitive or competitive. For example, a phosphate uptake assay can be performed and the IC50 values for a compound at different phosphate concentrations can be determined (e.g., “Enzyme kinetics”, I. Segel, 1975, John-Wiley & Sons, p. 123). IC50 values for non-competitive inhibitors will remain the same or similar with respect to the phosphate concentration, whereas IC50 values for competitive inhibitors will increase (i.e. lose potency) as phosphate concentration increases. […]

The nature of data set [2]: Stability of compounds in simulated gastric fluid (SGF). The format is in vitro ADME. The note with it: simulated gastric fluid (USP, 3 mg/mL pepsin), 1-20 μM, incubation time 6 hr, relative to t=0. The method, then: Test compounds were incubated at 1-20 μM in simulated gastric fluid (SGF; standard USP solution with 3 mg/mL pepsin) or simulated intestinal fluid (SIF; standard USP solution with 3 mg/mL pancreatin) for 3 hr or 6 hr. HPLC-UV or HPLC-MS were used to determine test compound levels using peak area %. Results (Table 14) were reported as the percentage of test compound remaining after incubation in a given condition relative to test compound present at t=0 in the same condition.

Bounds are passed on as bounds.

For `O=C(O)CCSCc1cccc(C(=O)Nc2ccc(N3CCCCC3)cc2-c2cc(C(=O)NCc3cccc(C(F)(F)F)c3)ccn2)c1` [Example 1.1, 3-(3-((2-(4-((3-(trifluoromethyl)benzyl)carbamoyl)pyridin-2-yl)-4-(piperidin-1-yl)phenyl)carbamoyl)-benzylthio)propanoic acid], the “Competitive with respect to Pi?” value in data set [1] was “No”.

Turning to `CCN(CC)c1ccc(NC(=O)c2cccc(C(=O)N(C)CCN3CCOCC3)c2)c(-c2cc(C(=O)NCc3cccc(C(F)(F)F)c3)ccn2)c1` [Example 25, N1-(4-(Diethylamino)-2-(4-((3-(trifluoromethyl)benzyl)carbamoyl)pyridin-2-yl)phenyl)-N3-methyl-N3-(2-morpholinoethyl)isophthalamide], the “% remaining, SGF” value in data set [2] is listed as more than 80%.

These data come from patent US9301951B2 (Ardelyx, Inc., priority 2010, dated 2016).
